Results reported in patent US9572760B2, “Uses of compounds and mixtures from Antrodia cinnamomea mycelia” (Simpson Biotech Co., Ltd., priority 2013, dated 2017).

Columns and labels:
[1] = tested on: HSC; assay: HSC proliferation by BrdU assay; assay type: cell-based; settings: highest concentration (80 μM), 72 hours
Procedure: The Cell Proliferation ELISA, BrdU kit was designed to quantitate cell proliferation bases on the measurement of BrdU incorporation during DNA synthesis in proliferation cells. Briefly, cells (1×10^4 cells/well) were seeded in 100 μl medium in a 96-well plate (Nunc, Denmark) and cultured for 24 h to allow the cells to attach and then treated with three different concentrations ([…]) of either Compound A, B, C and D for 24 h, 48 h and 72 h and the plates were incubated in 37° C. After incubation, the culture medium was labeled with 10 μl/well BrdU (Roche Diagnostic Inc.), and the cells were reincubated for addition 16 h at 37° C. Labeling medium was removed using 10 min centrifuge at 200×g and blow dried. Cells were fixed using 200 μl FixDenat solution and incubated for 30 min at room temperature. Removing the FixDenat solution, 100 μl of anti-BrdU-POD was added and incubated for 90 min at room temperature. After the incubation period, microplates were washed three times with PBS buffer and 100 μl substrate solution was added and incubated for 30 min. Stop solution was added (25 μl of 1 M H2SO4) and absorbance of the samples was measured using ELISA reader at 450 nm.

[2] = tested on: B16F10 cells; assay: Melanin content in B16F10 cells after UV irradiation; assay type: cell-based, murine; settings: 10 μM for 72 hrs prior to UV irradiation; UV alone 33.80±4.6% increase over non-UV cells (7.4±0.3 μg/mg protein)
From the text: (§1) The dermal fibroblast cell line CG1639 was obtained from the BCRC (Bioresource Collection and Research Center) and cultured in Dulbecco's modified Eagle media (DMEM, Gibco by Invitrogen) with 1% antibiotic antimycotic (Gibco by Invitrogen) and 15% fetal bovine serum (Gibco by Invitrogen). The fetal rat skin keratinocyte, FRSK cell line was obtained from the Japan HSRRB (Health Science Research Resources Bank) and cultured in Eagle's minimal essential media (MEM, Gibco by Invitrogen) supplemented with 10% fetal bovine serum (FBS) (Gibco by Invitrogen) and 1% antibiotic antimycotic (Gibco by Invitrogen). B16F10 cells, a murine melanoma cell line, were purchased from American Type Culture Collection (ATCC, Rockville, Md., USA) and was cultured in Eagle's Minimum Essential Medium (MEM; Sigma, St. Louis, Mo.) supplemented with 10% fetal bovine serum (FBS; HyClone Lab. Inc., Logan, Utah), 0.02% antibiotic-antimycotic liquid (penicillin, 10 000 U mL^−1; streptomycin, 10 000 μg mL^−1 and amphotericin B, 25 μg mL^−1; Invitrogen, Carlsbad, Calif.).
(§2) To investigate the induction of melanogenesis and the oxidative stress by direct UV irradiation, melanoma cells and keratocytes were irradiated with 8 J cm^−2 of UVA (FL15BLB, 352 nm, 15 W; Toshiba, Tokyo, Japan) and 10 mJ cm^−2 of UVB (G15T8E, 306 nm, 15 W; Sankyo Denki, Tokyo, Japan) in a HANKS' balanced salt solution (Sigma). The UV intensity was measured by using a Model UVX Digital Radiometer (UVP Inc., Upland, Calif.).
(§3) B16F10 and FRSK cells were exposed to Hepasim compounds A-D by two different concentrations (3 or 10 μM) for 72 hrs prior to UVA irradiation. DMEM was replaced with phosphate buffered saline (PBS) to avoid generation of medium-derived toxic photoproducts prior to UV irradiation. Cells were collected 24 hrs after UVA irradiation and assayed. For preparation of cell lysate, the harvested cells were pelleted by centrifugation and lysed in lysis buffer containing 50 mM Tris-HCl, 10 mM ethylene diaminetetraacetic acid (EDTA), 1% (v/v) Tri-ton X-100, phenylmethylsulfonyl fluoride (PMSF) (100 mg/ml) and pepstatin A (1 mg/ml) in DMSO and leupeptin (1 mg/ml) in H2O, pH 6.8. The cells were centrifuged at 10,000 rpm for 10 min and the total cell lysate was collected and stored at −80° C.
In order to measure the melanin contents, B16F10 cells were sonicated on ice and the mixture was centrifuged (25 000 g, 10 min, 4° C.). The supernatant was transferred, and pellets were dissolved in 0.85 N KOH at 60° C. for 20 min. Standard melanin (Sigma) was incubated in parallel. Spectrophotometric analysis of melanin content was then performed at an absorbance of 405 nm

[3] = tested on: HSC; assay: HSC apoptosis by cell death detection ELISA; assay type: cell-based; settings: highest concentration (80 μM), 72 hours
Procedure: Apoptosis was detected with a sandwich immunoassay system using a cell death detection ELISA kit (Roche Diagnostic Inc.). Roche's Cell Death Detection ELISA kit qualitatively and quantitatively detects the amount of cleaved DNA/histone complexes (nucleosomes) in a given sample using a sandwich-enzyme-immunoassay-based method. The cells (1×10^4 cells/well) were seeded in 100 μl medium in a 96-well plate (Nunc, Denmark) and cultured for 24 h to allow the cells to attach and then treated with three different concentrations (8 μM, 24 μM and 80 μM) of either Compound A, B, C and D for 24 h, 48 h and 72 h and the plates were incubated in 37° C. After incubation, the 96 well plates were centrifuged for 10 min at 200×g and removed supernatant and discard, then added 200 μl of lysis buffer per well using multipipetman and incubated 30 min at room temperature, microplates were centrifuged the lysate at 200×g for 10 min. After the centrifuge, 20 μl of the supernatant was transferred into the streptavidin-coated microplate, then added 80 μl of immunoreagent to each well. The microplate was covered with an adhesive foil and incubated on a shaker under gentle shaking for 2 hour at room temperature. After the incubation period, microplates were washed three times with 250-300 μl incubation buffer and 100 μl ABTS solution was added and incubated for 30 min or until color is sufficient for photometric. ABTS Stop solution was added and absorbance of the samples was measured using ELISA reader at 405 nm, reference wavelength at 490 nm.

[4] = target: T1, tyrosinase (Mus musculus, UniProt P11344); assay: Cellular tyrosinase activity assay (L-DOPA oxidation) in B16F10 cells exposed to UV; assay type: cell-based, murine; settings: UV alone 52.55±4.36% increase over non-UV control (3.0±0.5 U/mg protein)
T1 construct: endogenous in cells; host or cells: B16F10 murine melanoma cells (ATCC), total cell lysate
T1 sequence (P11344 19-533): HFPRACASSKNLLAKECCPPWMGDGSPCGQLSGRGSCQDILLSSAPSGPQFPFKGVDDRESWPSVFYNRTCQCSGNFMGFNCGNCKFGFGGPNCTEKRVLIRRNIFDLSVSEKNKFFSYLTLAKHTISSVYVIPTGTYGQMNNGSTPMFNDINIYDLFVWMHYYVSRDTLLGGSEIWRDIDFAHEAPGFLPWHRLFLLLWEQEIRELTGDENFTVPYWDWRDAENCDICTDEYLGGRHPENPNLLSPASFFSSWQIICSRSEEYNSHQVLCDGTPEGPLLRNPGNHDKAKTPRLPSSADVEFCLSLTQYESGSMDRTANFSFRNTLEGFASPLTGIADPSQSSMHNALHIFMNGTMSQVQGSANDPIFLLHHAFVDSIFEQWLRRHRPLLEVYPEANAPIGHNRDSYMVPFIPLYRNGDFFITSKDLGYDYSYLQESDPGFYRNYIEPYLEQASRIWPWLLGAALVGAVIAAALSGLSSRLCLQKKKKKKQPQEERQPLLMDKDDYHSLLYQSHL
From the text: as §1, §2, §3
The rate of L-DOPA oxidation was measured to assess cellular tyrosinase activity in B16F10 cells exposed to UV. The assay was performed as below described, 20 mM L-DOPA used as the substrates was added to each lysate in a 96-well plate and absorbance of dopachrome formation was measured spectrophotometrically at 475 nm every 10 min for 1 h at 37° C. by a spectrophotometer. The tyrosinase activity was calculated by comparison to a standard curve using tyrosinase (2034 U/mg) and was expressed as unit/mg protein. The data are expressed as a percentage of the tyrosinase activity (unit/mg protein) of non-irradiated and untreated control cells (100%).

SMILES	HSC proliferation (BrdU assay) [1]	melanin production in UV-irradiated B16F10 cells [2] [%]	apoptosis of HSC (cell death detection assay) [3]	tyrosinase activity in UV-irradiated B16F10 cells ([4]; 3 μM) [%]	tyrosinase activity in UV-irradiated B16F10 cells ([4]; 10 μM) [%]
CC(C)=CCOc1ccc([C@H]2C(=O)N(O)C(=O)[C@@H]2CC(C)C)cc1 (relative stereo) [Compound D, (3R*,4S*)-1-hydroxy-3-isobutyl-4-[4-(3-methyl-2-butenyloxy)phenyl]pyrrolidine-2,5-dione]	same but delayed	26.32±2.3	same but delayed	38.5±4.5	29.25±2.6
CC(C)=CCOc1ccc(C2=C(CC(C)C)C(=O)OC2=O)cc1 [Compound A, 3-isobutyl-4-[4-(3-methyl-2-butenyloxy)phenyl]furan-2,5-dione]	–	23.25±5.5	–	43.50±3.5	26.75±2.3
